According to patent publication US20230019491A1, “PYRIMIDINE TBK/IKKe INHIBITOR COMPOUNDS AND USES THEREOF” (Merck Patent GmbH, priority 2017, published 2023):

Tests used:
TBK1 = target: T1, TBK1 (Homo sapiens, UniProt Q9UHD2); experiment: TBK biochemical assay; conditions: 10 point 1:4 dose response, 30 uM top concentration, 90 min at 25° C., LabChip EZ Reader II; read-out: TBK1_IC50
T1 sequence (Q9UHD2 1-729): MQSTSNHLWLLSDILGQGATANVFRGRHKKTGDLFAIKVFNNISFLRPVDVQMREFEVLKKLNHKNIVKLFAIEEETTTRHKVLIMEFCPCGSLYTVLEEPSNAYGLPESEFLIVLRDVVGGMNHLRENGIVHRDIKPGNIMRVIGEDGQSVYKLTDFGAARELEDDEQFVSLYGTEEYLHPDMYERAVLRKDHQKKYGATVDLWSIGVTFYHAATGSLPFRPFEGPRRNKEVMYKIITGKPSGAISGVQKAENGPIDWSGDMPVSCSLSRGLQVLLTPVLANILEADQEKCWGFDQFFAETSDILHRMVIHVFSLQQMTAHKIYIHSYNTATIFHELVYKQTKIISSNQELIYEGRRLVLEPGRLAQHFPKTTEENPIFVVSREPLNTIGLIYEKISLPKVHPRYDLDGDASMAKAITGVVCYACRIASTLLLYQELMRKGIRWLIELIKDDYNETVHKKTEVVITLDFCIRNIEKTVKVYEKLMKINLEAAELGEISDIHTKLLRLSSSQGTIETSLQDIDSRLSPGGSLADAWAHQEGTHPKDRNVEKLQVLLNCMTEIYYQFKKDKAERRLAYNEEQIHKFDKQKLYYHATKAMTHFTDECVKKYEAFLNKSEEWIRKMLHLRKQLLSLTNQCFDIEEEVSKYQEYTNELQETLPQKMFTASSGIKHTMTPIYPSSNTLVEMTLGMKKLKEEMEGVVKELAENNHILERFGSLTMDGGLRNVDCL
Summary of the method: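 Substrate and product were separated and quantified by microfluidic mobility-shift read (LabChip). 10 uM staurosporine served as the full-inhibition control, and the reference compound was tested from 1 uM final.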

IKKε = target: T2, IKKε (Homo sapiens, UniProt Q14164); experiment: IKKε biochemical assay; conditions: 10 point 1:4 dose response, 30 uM top concentration, 90 min at 25° C., LabChip EZ Reader II; read-out: IKKε_IC50
T2 sequence (Q14164 1-716): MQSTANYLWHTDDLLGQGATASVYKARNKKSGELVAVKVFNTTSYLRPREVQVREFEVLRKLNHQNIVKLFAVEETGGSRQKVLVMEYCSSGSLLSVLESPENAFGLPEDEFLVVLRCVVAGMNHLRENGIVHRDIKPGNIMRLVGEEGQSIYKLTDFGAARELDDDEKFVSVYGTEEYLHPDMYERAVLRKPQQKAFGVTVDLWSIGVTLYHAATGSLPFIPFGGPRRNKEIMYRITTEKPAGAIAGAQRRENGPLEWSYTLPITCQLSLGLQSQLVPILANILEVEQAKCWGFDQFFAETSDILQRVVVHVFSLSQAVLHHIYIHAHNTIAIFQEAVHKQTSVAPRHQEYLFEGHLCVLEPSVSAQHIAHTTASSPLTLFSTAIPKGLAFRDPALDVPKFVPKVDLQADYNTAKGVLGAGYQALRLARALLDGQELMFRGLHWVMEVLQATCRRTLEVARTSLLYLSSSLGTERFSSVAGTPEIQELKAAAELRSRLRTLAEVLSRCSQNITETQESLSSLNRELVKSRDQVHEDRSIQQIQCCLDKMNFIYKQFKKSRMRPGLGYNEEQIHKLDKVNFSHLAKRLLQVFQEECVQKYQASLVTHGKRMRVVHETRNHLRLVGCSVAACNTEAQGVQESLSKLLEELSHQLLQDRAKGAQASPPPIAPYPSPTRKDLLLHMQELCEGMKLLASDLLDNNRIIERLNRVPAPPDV
Summary of the method: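 Compounds in 1% DMSO final were incubated with IKKε enzyme and substrate at 25° C. for 90 min, then stopped. Substrate and product peaks were resolved by LabChip EZ Reader II mobility-shift read-out. Staurosporine at 10 uM final served as the full-inhibition control.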

SMILES: COc1nc(Nc2nccc(-c3ccc(OC4CCN(C)CC4(F)F)c(C#N)c3)n2)ccc1N1CCN(C)CC1 (stereo not shown) [Example 98, 2-[(3,3-difluoro-1-methylpiperidin-4-yl)oxy]-5-(2-[[6-methoxy-5-(4-methylpiperazin-1-yl)pyridin-2-yl]amino]pyrimidin-4-yl)benzonitrile]
- IC50 (TBK1): < 100 nM
- IC50 (IKKε): < 100 nM

SMILES: COc1nc(Nc2nccc(-c3ccc(OC4CCN(C(=O)CO)CC4(F)F)c(C#N)c3)n2)ccc1N1CCN(C)CC1 (stereo not shown) [Example 99, 2-[[3,3-difluoro-1-(2-hydroxyacetyl)piperidin-4-yl]oxy]-5-(2-[[6-methoxy-5-(4-methylpiperazin-1-yl)pyridin-2-yl]amino]pyrimidin-4-yl)benzonitrile]
- IC50 (TBK1): < 100 nM
- IC50 (IKKε): < 100 nM

SMILES: COc1nc(Nc2nccc(-c3ccc(O[C@H]4CCN(C(=O)CO)CC4(F)F)c(C#N)c3)n2)ccc1N1CCN(C)CC1 [Example 100, 2-[[(4S)-3,3-difluoro-1-(2-hydroxyacetyl)piperidin-4-yl]oxy]-5-(2-[[6-methoxy-5-(4-methylpiperazin-1-yl)pyridin-2-yl]amino]pyrimidin-4-yl)benzonitrile]
- IC50 (TBK1): < 100 nM
- IC50 (IKKε): < 100 nM

SMILES: COc1nc(Nc2nccc(-c3ccc(O[C@@H]4CCN(C(=O)CO)CC4(F)F)c(C#N)c3)n2)ccc1N1CCN(C)CC1 [Example 101, 2-[[(4R)-3,3-difluoro-1-(2-hydroxyacetyl)piperidin-4-yl]oxy]-5-(2-[[6-methoxy-5-(4-methylpiperazin-1-yl)pyridin-2-yl]amino]pyrimidin-4-yl)benzonitrile]
- IC50 (TBK1): < 100 nM
- IC50 (IKKε): < 100 nM

SMILES: COc1nc(Nc2nccc(-c3ccc(OC4CCN(C(=O)[C@@H](C)O)CC4(F)F)c(C#N)c3)n2)ccc1N1CCN(C)[C@@H](C)C1 (stereo partly drawn) [Example 102, 2-[3,3-Difluoro-1-((R)-2-hydroxy-propionyl)-piperidin-4-yloxy]-5-{2-[5-((S)-3,4-dimethyl-piperazin-1-yl)-6-methoxy-pyridin-2-ylamino]-pyrimidin-4-yl}-benzonitrile]
- IC50 (TBK1): < 100 nM
- IC50 (IKKε): < 100 nM

SMILES: COc1nc(Nc2nccc(-c3ccc(OC4CCN(C(=O)[C@@H](C)O)CC4(F)F)c(C#N)c3)n2)ccc1N1CCN(C)[C@H](C)C1 (stereo partly drawn) [Example 103, 2-[3,3-Difluoro-1-((R)-2-hydroxy-propionyl)-piperidin-4-yloxy]-5-{2-[5-((R)-3,4-dimethyl-piperazin-1-yl)-6-methoxy-pyridin-2-ylamino]-pyrimidin-4-yl}-benzonitrile]
- IC50 (TBK1): < 100 nM
- IC50 (IKKε): < 100 nM

SMILES: COc1nc(Nc2nccc(-c3ccc(OC4CCN(C(=O)[C@@H](C)O)CC4(F)F)c(C#N)c3)n2)ccc1N1CCN(C)CC1 (stereo partly drawn) [Example 104, 2-[3,3-Difluoro-1-((R)-2-hydroxy-propionyl)-piperidin-4-yloxy]-5-{2-[6-methoxy-5-(4-methyl-piperazin-1-yl)-pyridin-2-ylamino]-pyrimidin-4-yl}-benzonitrile]
- IC50 (TBK1): < 100 nM
- IC50 (IKKε): < 100 nM

SMILES: COc1nc(Nc2nccc(-c3ccc(OC4CCN(C(=O)[C@H](C)O)CC4(F)F)c(C#N)c3)n2)ccc1N1CCN(C)[C@@H](C)C1 (stereo partly drawn) [Example 105, 2-[3,3-Difluoro-1-((S)-2-hydroxy-propionyl)-piperidin-4-yloxy]-5-{2-[5-((S)-3,4-dimethyl-piperazin-1-yl)-6-methoxy-pyridin-2-ylamino]-pyrimidin-4-yl}-benzonitrile]
- IC50 (TBK1): < 100 nM
- IC50 (IKKε): < 100 nM

SMILES: COc1nc(Nc2nccc(-c3ccc(OC4CCN(C(=O)[C@H](C)O)CC4(F)F)c(C#N)c3)n2)ccc1N1CCN(C)[C@H](C)C1 (stereo partly drawn) [Example 106, 2-[3,3-Difluoro-1-((S)-2-hydroxy-propionyl)-piperidin-4-yloxy]-5-{2-[5-((R)-3,4-dimethyl-piperazin-1-yl)-6-methoxy-pyridin-2-ylamino]-pyrimidin-4-yl}-benzonitrile]
- IC50 (TBK1): < 100 nM
- IC50 (IKKε): < 100 nM

SMILES: COc1nc(Nc2nccc(-c3ccc(OC4CCN(C(=O)[C@H](C)O)CC4(F)F)c(C#N)c3)n2)ccc1N1CCN(C)CC1 (stereo partly drawn) [Example 107, 2-[3,3-Difluoro-1-((S)-2-hydroxy-propionyl)-piperidin-4-yloxy]-5-{2-[6-methoxy-5-(4-methyl-piperazin-1-yl)-pyridin-2-ylamino]-pyrimidin-4-yl}-benzonitrile]
- IC50 (TBK1): < 100 nM
- IC50 (IKKε): < 100 nM

SMILES: COc1nc(Nc2nccc(-c3ccc(OC4CCNCC4(F)F)c(C#N)c3)n2)ccc1N1CCN(C)C[C@H]1C (stereo partly drawn) [Example 108, 2-(3,3-Difluoro-piperidin-4-yloxy)-5-{2-[5-((R)-2,4-dimethyl-piperazin-1-yl)-6-methoxy-pyridin-2-ylamino]-pyrimidin-4-yl}-benzonitrile]
- IC50 (TBK1): < 100 nM
- IC50 (IKKε): < 100 nM

SMILES: COc1nc(Nc2nccc(-c3ccc(OC4CCNCC4(F)F)c(C#N)c3)n2)ccc1N1CCN(C)C[C@@H]1C (stereo partly drawn) [Example 109, 2-(3,3-Difluoro-piperidin-4-yloxy)-5-{2-[5-((S)-2,4-dimethyl-piperazin-1-yl)-6-methoxy-pyridin-2-ylamino]-pyrimidin-4-yl}-benzonitrile]
- IC50 (TBK1): < 100 nM
- IC50 (IKKε): < 100 nM

SMILES: COc1nc(Nc2nccc(-c3ccc(OC4CCN(C(=O)[C@@H](C)O)CC4(F)F)c(C#N)c3)n2)ccc1N1CCN(C)C[C@@H]1C (stereo partly drawn) [Example 111, 2-[3,3-Difluoro-1-((R)-2-hydroxy-propionyl)-piperidin-4-yloxy]-5-{2-[5-((S)-2,4-dimethyl-piperazin-1-yl)-6-methoxy-pyridin-2-ylamino]-pyrimidin-4-yl}-benzonitrile]
- IC50 (TBK1): < 100 nM
- IC50 (IKKε): < 100 nM

SMILES: COc1nc(Nc2nccc(-c3ccc(OC4CCN(C(=O)[C@H](C)O)CC4(F)F)c(C#N)c3)n2)ccc1N1CCN(C)C[C@@H]1C (stereo partly drawn) [Example 113, 2-[3,3-Difluoro-1-((S)-2-hydroxy-propionyl)-piperidin-4-yloxy]-5-{2-[5-((S)-2,4-dimethyl-piperazin-1-yl)-6-methoxy-pyridin-2-ylamino]-pyrimidin-4-yl}-benzonitrile]
- IC50 (TBK1): < 100 nM
- IC50 (IKKε): < 100 nM

SMILES: COc1nc(Nc2nccc(-c3ccc(OC4CCN(C(=O)C(C)(C)O)CC4(F)F)c(C#N)c3)n2)ccc1N1CCN(C)C[C@H]1C (stereo partly drawn) [Example 114, 2-[3,3-Difluoro-1-(2-hydroxy-2-methyl-propionyl)-piperidin-4-yloxy]-5-{2-[5-((R)-2,4-dimethyl-piperazin-1-yl)-6-methoxy-pyridin-2-ylamino]-pyrimidin-4-yl}-benzonitrile]
- IC50 (TBK1): < 100 nM
- IC50 (IKKε): < 100 nM

SMILES: COc1nc(Nc2nccc(-c3ccc(O[C@H]4CCN(C(=O)c5cnn[nH]5)C[C@H]4F)c(C#N)c3)n2)ccc1N1CCN(C2COC2)CC1 [Example 115, 2-[[(3R,4S)-3-fluoro-1-[(1H-1,2,3-triazol-5-yl)carbonyl]piperidin-4-yl]oxy]-5-[2-([6-methoxy-5-[4-(oxetan-3-yl)piperazin-1-yl]pyridin-2-yl]amino)pyrimidin-4-yl]benzonitrile]
- IC50 (TBK1): < 100 nM
- IC50 (IKKε): < 100 nM

SMILES: COc1nc(Nc2nccc(-c3ccc(O[C@H]4CCN(C(=O)[C@H](C)O)C[C@H]4F)c(C#N)c3)n2)ccc1N1CCN(C2COC2)CC1 [Example 116, 2-[(3R,4S)-3-Fluoro-1-((S)-2-hydroxy-propionyl)-piperidin-4-yloxy]-5-{2-[6-methoxy-5-(4-oxetan-3-yl-piperazin-1-yl)-pyridin-2-ylamino]-pyrimidin-4-yl}-benzonitrile]
- IC50 (TBK1): < 100 nM
- IC50 (IKKε): < 100 nM
